pIC50: −log10 of the molar value.
Tested on: Mycobacterium tuberculosis H37Rv growth inhibition, no glycerol
Experiment: Mycobacterium tuberculosis H37Rv growth inhibition, no glycerol, confirmatory dose response (AID 449764);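 further: growth read after 7 days of incubation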
Details: for IC90: measured here: IC90 growth inhibition

Row | Structure (SMILES) | pIC50 | IC90
1 | C/C(=N\N=C(/N)SC1CC(=O)N(c2ccc(Cl)cc2)C1=O)c1cccs1 (centres undefined) | 4.48 | > 100 µM
2 | Cn1cc(NC(=O)CCl)cn1 | 5.07 | 16.1 µM
3 | Cc1cncn1CCc1nc2c3ccccc3nc(SCC(=O)Nc3cccc(Cl)c3)n2n1 | 4.56 | 31.9 µM
4 | CCOC(=O)CN[C@H]1CCC2C3CC=C4C[C@@H](O)CC[C@]4(C)C3CC[C@@]21C (some centres undefined) | 5.45 | 14.3 µM
5 | CCc1nnc(NC(=O)CN2CCN(c3nc(-c4ccccc4)cs3)CC2)s1 | 4.37 | 92.6 µM
6 | CCN(CC)CCN(C(=O)c1ccc(S(=O)(=O)N2CCCC2)cc1)c1nc2cc(C)cc(C)c2s1 | 4.93 | 13.5 µM
7 | O=C(/C=C/c1c(F)cccc1Cl)c1ccc(F)cc1 | 4.33 | 73 µM
8 | O=[N+]([O-])c1cc([N+](=O)[O-])c2c(=Nc3ccccc3)n(-c3ccccc3)n(O)c2c1 | 5.08 | 10.3 µM
9 | COc1ccc(COC(=O)CCNC(=O)c2ccc(Cl)cc2)cc1 | 4.15 | > 100 µM
10 | CCCCCCCCNC(C)C(O)c1ccc(SC(C)C)cc1 (centres undefined) | 4.60 | 26.5 µM
11 | Cc1ccccc1-n1sc2cc(F)ccc2c1=O | 4.66 | 24.6 µM
12 | COc1ccc(-c2ccc(-c3noc(C(C)C)n3)c(OC)n2)cc1 | 4.40 | 54.6 µM
13 | O=c1/c(=C\c2ccc(O)cc2)sc2n1C(c1ccccc1)C(c1ccccc1)=NN=2 (centres undefined) | 4.39 | 66 µM
14 | Cc1ccc(/C=N/NC(=S)NC(C)C)o1 | 4.37 | 46.7 µM
15 | CC(C)(C)C1CCc2nc(NC(=O)Cc3cn4ccsc4n3)sc2C1 (centres undefined) | 4.61 | 35.4 µM
16 | O=C(/C=C/Sc1ncn[nH]1)c1ccc(Cl)cc1 | 4.46 | 55.1 µM
17 | O=C(c1ccc(-c2cccc(C(F)(F)F)c2)o1)N1CCN(c2ccccc2O)CC1 | 4.62 | 27.5 µM
18 | Cc1nn(-c2ccccc2)c(Cl)c1/C=C/C(=O)c1ccccc1 | 4.13 | 97.2 µM
19 | C/C(=N\NC(=O)c1cc2ccccc2cc1O)c1ccc(C)o1 | 4.98 | 18.7 µM
20 | COc1ccccc1OC(=O)c1ccc(S(=O)(=O)N(C)C)cc1 | 4.79 | 35.8 µM
21 | CCN(CC)c1ccc2c(Cl)c(Br)c(=O)oc2c1 | 4.65 | 61.6 µM
22 | Cc1cccc(OCC(=O)NNC(=O)c2cc3ccccc3oc2=O)c1 |  | > 100 µM

Row | Structure (SMILES) | pIC50 | IC90
23 | Cc1ccccc1N1CCN(c2ncnc3c2cnn3Cc2ccc(Cl)cc2)CC1 | 4.25 | > 100 µM
24 | COc1ccc(CN(CCC(c2ccccc2)c2ccc(OC(C)C)cc2)C(=O)CCl)cc1OC (centres undefined) | 4.80 | 23.5 µM
25 | Oc1ccccc1N=Cc1ccc[nH]1 | 5.34 | 6.04 µM
26 | CCCCCCC[N+](CC)(CC)CCCCc1ccc(Cl)cc1 | 4.43 | 49.8 µM
27 | CCOC(=O)C1CCN(CC(O)COc2ccc(C(C)(C)CC)cc2)CC1 (centres undefined) | 4.64 | 26.5 µM
28 | O=C(CSc1ncnc2nc[nH]c12)c1ccc(Cl)cc1 | 4.72 | 25.4 µM
29 | CSc1cccc(NC(=O)CCS(=O)(=O)c2cccc3nonc23)c1 | 5.25 | 9.26 µM
30 | CCCn1c(CC)nc([N+](=O)[O-])c1S(=O)(=O)c1ccccc1 | 4.74 | 23.6 µM
31 | COC(=O)CSc1ncnc2c1cnn2-c1ccc(C)cc1C | 5.22 | 6.82 µM
32 | Cn1c(NC(=S)Nc2ccccc2)nc2ccccc21 | 5.24 | 6.33 µM
33 | Cc1c(CCC(=O)NCCCn2ccnc2)c(=O)oc2c(C)c3occ(C(C)(C)C)c3cc12 | 4.55 | 37.6 µM
34 | CCOC(=O)c1ccc(NC(=O)CCc2nc(-c3ccc(Cl)cc3)no2)cc1 | 4.32 | > 100 µM
35 | CCNC(=S)NN=C1c2ccccc2-c2ccccc21 | 4.96 | > 25 µM
36 | C/C(=C1/C(=O)N(c2ccc([N+](=O)[O-])cc2)N=C1c1ccccc1)N(C)C | 4.55 | 37 µM
37 | S=C(Nc1ccc(Cl)cc1)NC1CC2CCC(C1)N2Cc1ccccc1 (centres undefined) | 4.20 | 95.6 µM
38 | CCCCN(C)S(=O)(=O)c1ccc(C(=O)Nc2nnc(-c3ccco3)o2)cc1 | 4.75 | 32.7 µM
39 | Cc1ccc(C(=O)N/C(=C/c2ccc(-c3cc(C(F)(F)F)ccc3Cl)o2)C(=O)NCc2cccnc2)cc1 | 4.13 | > 100 µM
40 | OCC(O)/C=N/Nc1nc(Nc2ccccc2)nc(Nc2ccccc2)n1 (centres undefined) | 4.85 | 24.1 µM
41 | c1ccc(Cn2c3ccccc3c3nnc(SCCN4CCCCC4)nc32)cc1 | 4.56 | 42.1 µM
42 | COc1cccc(-n2nnc3c(=O)n(CC(=O)N4CCC(Cc5ccccc5)CC4)cnc32)c1 | 4.29 | > 100 µM
43 | O=C(/C=C/c1cccnc1)c1cccc(O)c1 | 4.65 | 24.1 µM
44 | CCOC(=O)C1CCN(c2cc3c(cc2NC(=O)c2ccccc2Cl)n(C)c(=O)n3C)CC1 | 4.35 | 51.2 µM

Row | Structure (SMILES) | pIC50 | IC90
45 | N#Cc1ccc(CN2CCN(CC(=O)NCCc3ccc(Cl)cc3Cl)CC2)cc1 | 4.35 | 51.2 µM
46 | O=C1CN(CC(=O)N2CCCCC2)c2ccccc2O1 | 4.61 | 27.1 µM
47 | Cc1cc(NC(=O)c2sccc2C)n(-c2nc3ccccc3[nH]2)n1 | 4.99 | > 100 µM
48 | COc1ccc(-c2c(C#N)c(SCC(=O)c3cc4ccccc4oc3=O)nc(C)c2C(=O)Nc2ccccc2)cc1 | 4.14 | > 100 µM
49 | c1ccc(CC2CCN(C3=Nc4cccc5cccc3c45)CC2)cc1 | 4.55 | 37.9 µM
50 | CN1/C(=C/C(=O)c2nc(S(C)(=O)=O)ncc2Cl)C(C)(C)c2ccccc21 | 5.17 | 13.1 µM
51 | CCCCOc1ccc(Br)cc1/C(C)=N/NC1=NCCN1 | 4.65 | 31.8 µM
52 | CCOC(=O)C1CCCN(c2ncnc3c2cnn3-c2ccc(OC)cc2)C1 (centres undefined) | 5.24 | 10.3 µM
53 | O=c1cc(O)c2sc3nc(-c4cccnc4)cc(C(F)(F)F)c3c2[nH]1 | 4.40 | > 100 µM
54 | C/C(=N/NC(=O)c1ccccn1)c1c[nH]c2ccccc12 | 4.97 | 21.4 µM
55 | CCc1ccc2[nH]c(=O)c(CN(CCCN3CCOCC3)C(=O)Nc3cccc(Cl)c3)cc2c1 | 4.47 | 40.5 µM
56 | O=S(Cc1ccc(Br)cc1)Cc1nnc(SCc2ccc(Cl)cc2)n1-c1ccccc1 (centres undefined) | 4.08 | > 100 µM
57 | COC(=O)[C@@H](NC(=O)O[C@@H]1C(=O)c2ccc(OC)cc2O[C@H]1c1cccc(C(F)(F)F)c1)C(C)C |  | > 100 µM
58 | NC(=S)NNc1ccc(Cl)c(Cl)c1 | 5.11 | 12.1 µM
59 | O=C(Nc1ccc(Cl)cc1)N(C1=NCCC1)c1ccc(OC(F)F)cc1 | 4.19 | > 100 µM
60 | CC(C)NC(=O)c1sc(=S)n2c1[nH]c(=O)c1ccc(C(=O)NCCc3ccc(Cl)cc3)cc12 | 6.14 | 0.83 µM
61 | Cn1c(CNc2nc(-c3ccccc3)cs2)nnc1SCC(=O)OC1CCCCC1 | 4.62 | 27.3 µM
62 | NC(=S)N/N=C/c1ccc(-c2ccccc2)o1 | 4.36 | 90.7 µM
63 | O=C(c1cc2nc(-c3ccc(F)cc3)cc(C(F)(F)F)n2n1)N1CCCCC1c1cccnc1 (centres undefined) | 4.68 | 29.2 µM
64 | O=C(NC1CCN(Cc2ccccc2)CC1)c1cccc(S(=O)(=O)Nc2ccc(SC(F)F)cc2)c1 | 4.71 | 27.9 µM
65 | CCOC(=O)c1c(NC(=O)CCl)sc(CN(C)C)c1-c1ccccc1 | 5.52 | 10.7 µM
66 | COc1ccc2c(c1)CCc1c(C(=O)Nc3c(C)n(C)n(-c4ccccc4)c3=O)noc1-2 | 4.05 | > 100 µM

Row | Structure (SMILES) | pIC50 | IC90
67 | CCc1ccc(-c2csc(-c3c[nH]c4ccccc34)n2)cc1 | 4.77 | 21.3 µM
68 | O=C(Cn1ncc(Cl)c(Cl)c1=O)c1ccc2c(c1)OCCO2 | 4.98 | 15.7 µM
69 | CC(OC(=O)COc1ccc(Nc2ccccc2)cc1)C(=O)N(C)c1ccccc1 (centres undefined) | 5.67 | 10.9 µM
70 | COC(=O)C1C(O)C(C)C(O)C(C)/C=C\C=C(/C)C(=O)Nc2c(C)c(OC(C)=O)c3c(c2O)C(=O)C(C)=C2OCOC(=C23)/C(C)=C/C(C)(O)C(O)C(C)C1O (centres undefined) | > 6.70 | < 0.2 µM
71 | CCOC(=O)C(C)Oc1ccc(NC(=O)C(Cl)(Cl)Cl)cc1 (centres undefined) | 5.40 | 5.86 µM
72 | COc1ccc(NC(C)C(=O)Nc2ccc(C(C)(C)C)cc2)cc1Cl (centres undefined) | 4.03 | > 100 µM
73 | O=C(Nc1ncc(Cc2ccccc2Cl)s1)C1=NCCN1 | 4.63 | > 100 µM
74 | CCOC(=O)CSc1ccc(C(=O)Nc2ccc(OC)cc2)cn1 | 6.34 | > 100 µM
75 | Cc1cccc(C)c1OCCCCc1c(C)n[nH]c1C | 4.75 | > 100 µM
76 | O=c1cc(-c2ccccc2Cl)oc2ccc([N+](=O)[O-])c(O)c12 | 4.67 | 28.2 µM
77 | CCOC(=O)c1ccc(-c2c(-c3ccc4c(c3)OCO4)noc2C)cc1F | 4.27 | > 100 µM
78 | CCCNc1nc(-c2cc(C(=O)Nc3ccccc3)on2)cc(C(C)C)n1 | 4.37 | 68.9 µM
79 | COc1ccc(N/N=C(/N=Nc2nc(C)cc(=O)[nH]2)c2ccccc2)cc1 | 5.25 | 6.4 µM
80 | N=C1C(c2nc3ccccc3[nH]2)=C(O)CN1NC(=O)c1c[nH]c2ccccc12 | 4.57 | 40.1 µM
81 | CCOC(=O)c1sc2nc(C)nc(SC(C)C(=O)N(C)c3ccccc3)c2c1C (centres undefined) | 4.46 | 44.6 µM
82 | CC(C)(C)c1ccc(OCCCC(=O)NC2=NCCS2)cc1 | 4.41 | 48.9 µM
83 | CC1Cc2cc(-c3csc(NC(=O)Cc4cccs4)n3)ccc2N1S(C)(=O)=O (centres undefined) | 4.44 | > 100 µM
84 | COc1ccccc1C(=O)NNC(=O)C(=O)NCc1ccccc1 | 4.64 | 40.6 µM
85 | Cc1ccc(C)c(N2CCN(C(=S)Nc3ccc4nc(N5CCN(C)CC5)cc(C)c4c3)CC2)c1 | 4.45 | 55.9 µM
86 | CC(C)Cn1c(N2CCN(C(=O)/C=C/c3ccccc3)CC2)nc2ccccc21 | 4.47 | 47.4 µM
87 | Clc1ccc(C(Cn2ccnc2)OCc2csc3c(Cl)cccc23)c(Cl)c1 (centres undefined) | 4.75 | 23.9 µM
88 | CC(OC(=O)c1cnc2ccccc2n1)c1ccccc1Cl (centres undefined) | 4.66 | 34 µM

— PubChem BioAssay AID449764 (Southern Research Specialized Biocontainment Screening …, 2010)
